Test results reported in patent US20230233541A1, “SUBSTITUTED BENZAMIDES AS MODULATORS OF TREX1” (Constellation Pharmaceuticals, Inc., priority 2020, published 2023).

Key:
full length human TREX1 = target: T1, full length human TREX1 (Homo sapiens, UniProt Q9NSU2); assay: TREX1 Biochemical Assay (fluorescence assay, degradation of dsDNA substrate); conditions: 150 pM TREX1, 60 nM dsDNA substrate, 25 minutes at room temperature; read-out: hTREX1 EC50
T1 construct: N-terminally His-Tev tagged full length human TREX1; His-Tev (His tag with TEV protease site) (N); made in house; host or cells: E. coli
T1 sequence (Q9NSU2 1-314): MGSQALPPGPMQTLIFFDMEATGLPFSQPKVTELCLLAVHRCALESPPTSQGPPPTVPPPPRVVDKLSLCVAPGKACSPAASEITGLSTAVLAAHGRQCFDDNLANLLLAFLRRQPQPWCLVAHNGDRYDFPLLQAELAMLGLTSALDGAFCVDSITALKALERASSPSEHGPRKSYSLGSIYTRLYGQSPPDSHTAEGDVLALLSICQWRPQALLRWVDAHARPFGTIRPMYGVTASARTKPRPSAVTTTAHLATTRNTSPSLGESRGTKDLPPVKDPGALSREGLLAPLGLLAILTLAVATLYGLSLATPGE
Outline: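 E. coli-expressed His-Tev-tagged full-length TREX1 (150 pM) with 60 nM quenched-fluorophore dsDNA in Tris pH 7.4, 150 mM NaCl, 100 mM MgCl2, 1% DMSO, 25 min room temperature, 10-point dose-response. EDTA stop; fluorescence 615 nm (ex 570 nm); IC50 from four-parameter fit against pre-quenched and no-inhibitor controls.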

[1] = target: T2, human TREX2 (residues M44-A279) (Homo sapiens, UniProt Q9BQ50); assay: TREX2 Biochemical Assay (fluorescence assay, degradation of dsDNA substrate); conditions: 2.5 nM TREX2, 60 nM dsDNA substrate, 25 minutes at room temperature; read-out: hTREX2 EC50
T2 construct: human TREX2 (residues M44-A279, expressed in E. coli); His-Tev (His tag with TEV protease site) (N); made in house; host or cells: E. coli
T2 sequence (Q9BQ50 44-279 isoform Q9BQ50-1): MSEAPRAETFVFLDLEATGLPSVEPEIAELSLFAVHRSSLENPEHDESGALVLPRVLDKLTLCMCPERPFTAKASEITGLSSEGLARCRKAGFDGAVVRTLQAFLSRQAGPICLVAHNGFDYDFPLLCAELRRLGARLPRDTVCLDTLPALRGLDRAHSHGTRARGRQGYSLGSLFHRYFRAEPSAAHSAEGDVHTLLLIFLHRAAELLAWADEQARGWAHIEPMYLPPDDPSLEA
Outline: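 His-Tev-tagged human TREX2 (M44-A279, E. coli-expressed) at 2.5 nM final, with 60 nM TEX615/quencher-labelled dsDNA in pH 7.4 Tris buffer with MgCl2 and 1.0% DMSO, 10-point dose-response, 25 min at room temperature, then EDTA quench. Fluorescence read at 615 nm (ex 570 nm). IC50 from four-parameter fit against pre-quenched and no-inhibitor controls.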

| SMILES | EC50 (full length human TREX1) [nM] | EC50 [1] [µM] |
| --- | --- | --- |
| O=C(c1cccc(F)c1)N(Cc1cccnc1)Cc1ccccc1F [Compound 129] | > 10000 | > 100 |
| O=C(c1cccc(F)c1)N(Cc1cnc2ccccc2c1)Cc1ccc(Cl)cc1Cl [Compound 109] | > 10000 | > 100 |
| O=C(c1cccc(Cl)c1)N(Cc1cccnc1)Cc1ccc(Cl)cc1Cl [Compound 5] | 1000 to 10000 | > 100 |
| O=C(c1ccc(-c2ccccc2)cc1)N(Cc1cccnc1)Cc1cc(Cl)cc(Cl)c1 [Compound 58] | > 10000 | > 100 |
| O=C(c1ccc(Br)cc1Cl)N(Cc1cccnc1)Cc1cc(Cl)cc(Cl)c1 [Compound 70] | > 10000 | > 100 |
| Cn1ncc2cc(CN(Cc3cccnc3)C(=O)c3cccc(F)c3)ccc21 [Compound 126] | > 10000 | > 100 |
| O=C(C1CCOCC1)N(Cc1cccnc1)Cc1ccc(Cl)cc1Cl [Compound 89] | > 10000 | > 100 |
| O=C(c1ccc(Oc2ccc(Cl)cc2)cc1)N(Cc1cccnc1)Cc1cc(Cl)cc(Cl)c1 [Compound 59] | > 10000 | > 100 |
| O=C(c1cccc(F)c1)N(Cc1cccnc1)Cc1ccccc1Cl [Compound 139] | 1000 to 10000 | > 100 |
| CC(C)c1ccc(C(=O)N(Cc2cccnc2)Cc2ccc(Cl)cc2Cl)cc1 [Compound 85] | > 10000 | > 100 |
| O=C(c1ccc(CO)cc1F)N(Cc1cccnc1)Cc1ccc(Cl)cc1Cl [Compound 84] | > 10000 | > 100 |
| O=C(c1ccc(O)c(Cl)c1)N(Cc1cccnc1)Cc1cc(Cl)cc(Cl)c1 [Compound 35] | > 10000 | > 100 |
| O=C(c1ccc(Oc2ccccc2)cc1)N(Cc1cccnc1)Cc1ccc(Cl)cc1Cl [Compound 33] | > 10000 | > 100 |
| O=C(c1ccc(O)cc1)N(Cc1cccnc1)Cc1cc(Cl)cc(Cl)c1 [Compound 48] | > 10000 | > 100 |
| O=C(c1ccc(Oc2ccc(Cl)cc2)cc1)N(Cc1cccnc1)Cc1ccc(Cl)cc1Cl [Compound 25] | 1000 to 10000 | > 100 |
| O=C(c1cc(F)c(F)cc1F)N(Cc1cccnc1)Cc1ccc(Cl)cc1Cl [Compound 120] | > 10000 | > 100 |
| O=C(c1ccc(CO)cc1F)N(Cc1cccnc1)Cc1cc(Cl)cc(Cl)c1 [Compound 60] | > 10000 | > 100 |
| O=C(c1cncnc1)N(Cc1cccnc1)Cc1ccc(Cl)cc1Cl [Compound 100] | > 10000 | > 100 |
| O=C(c1ccc(O)c(C(F)(F)F)c1)N(Cc1cccnc1)Cc1cc(Cl)cc(Cl)c1 [Compound 72] | > 10000 | > 100 |
| O=C(c1cccc(F)c1)N(Cc1cccnc1)C1Cc2ccccc2C1 [Compound 134] | > 10000 | > 100 |
| Cn1ncc2ccc(CN(Cc3cccnc3)C(=O)c3cccc(F)c3)cc21 [Compound 128] | 1000 to 10000 | > 100 |
| O=C(c1cccc(F)c1)N(Cc1cccnc1)[C@H](CO)c1ccc(Cl)cc1Cl (single isomer, unassigned) [Compound 162] | 100 to 1000 | 10 to 100 |
| O=C(c1ccccc1Oc1ccccc1)N(Cc1cccnc1)Cc1ccc(Cl)cc1Cl [Compound 44] | > 10000 | > 100 |
| C[C@@H](c1cccnc1)N(Cc1ccc(Cl)cc1Cl)C(=O)c1cccc(F)c1 (single isomer, unassigned) [Compound 154] | > 10000 | > 100 |
| Nc1ccc(CN(Cc2ccc(Cl)cc2Cl)C(=O)c2cccc(F)c2)cn1 [Compound 146, N-[(6-aminopyridin-3-yl)methyl]-N-[(2,4-dichlorophenyl)methyl]-3-fluorobenzamide] | 1000 to 10000 | > 100 |
| O=C(c1cccc(F)c1)N(CCc1ccc(Cl)cc1Cl)Cc1cccnc1 [Compound 133] | > 10000 | > 100 |
| COc1ccccc1CN(Cc1cccnc1)C(=O)c1cccc(F)c1 [Compound 125] | > 10000 | > 100 |
| C[C@H](c1ccc(C(N)=O)cc1Cl)N(Cc1cccnc1)C(=O)c1cccc(F)c1 (single isomer, unassigned) [Compound 163] | 100 to 1000 | 10 to 100 |

Further lines, results first:

| EC50 (full length human TREX1) [nM] | EC50 [1] [µM] | SMILES |
| --- | --- | --- |
| > 10000 | > 100 | Cn1cc(CN(Cc2ccc(Cl)cc2Cl)C(=O)c2cccc(F)c2)cn1 [Compound 112] |
| < 100 | 1 to 10 | O=C(O)c1ccc(CN(Cc2cccc(Cl)c2Cl)C(=O)c2cccc(F)c2)cn1 [Compound 147] |
| 1000 to 10000 | 10 to 100 | N#CC[C@@H](c1cccc(Cl)c1Cl)N(Cc1cccnc1)C(=O)c1cc(F)cc(F)c1 [Compound 234] |
| 100 to 1000 | > 100 | O=C(c1cc(F)cc(F)c1)N(Cc1ccc(-n2cccn2)nc1)Cc1ccc(Cl)cc1Cl [Compound 175] |
| 100 to 1000 | 10 to 100 | O=C(c1cc(F)cc(F)c1)N(Cc1ccc(-c2nnn[nH]2)nc1)Cc1ccccc1Cl [Compound 169] |
| < 100 | 1 to 10 | CC[C@H](c1cccc(Cl)c1Cl)N(Cc1ccc(C(=O)O)nc1)C(=O)c1cc(F)cc(F)c1 [Compound 254] |
| 100 to 1000 | 10 to 100 | Cc1ccccc1CN(Cc1ccc(C(=O)O)nc1)C(=O)c1cc(F)cc(F)c1 [Compound 193] |
| < 100 | 10 to 100 | O=C(O)CC[C@@H](c1ccccc1Cl)N(Cc1cccnc1)C(=O)c1cc(F)cc(F)c1 [Compound 244] |
| > 10000 | > 100 | O=C(c1cccc(F)c1)N(Cc1cccnn1)Cc1ccc(Cl)cc1Cl [Compound 107] |
| 100 to 1000 | 1 to 10 | O=C(O)c1ncc(CN(Cc2cccc(Cl)c2Cl)C(=O)c2cc(F)cc(F)c2)cc1Cl [Compound 204] |
| > 10000 | > 100 | COc1cc(C(=O)N(Cc2cccnc2)Cc2ccc(Cl)cc2Cl)cc(Br)c1OC [Compound 32] |
| 1000 to 10000 | 10 to 100 | COc1nc(C(=O)O)ccc1CN(Cc1cccc(Cl)c1Cl)C(=O)c1cc(F)cc(F)c1 [Compound 210] |
| 1000 to 10000 | 10 to 100 | O=C(c1cccc(F)c1)N(Cc1cccnc1)Cc1ccc(Cl)cc1Cl [Compound 11] |
| 100 to 1000 | 10 to 100 | O=C(c1cc(F)c(F)c(F)c1)N(Cc1cccnc1)Cc1ccc(Cl)cc1Cl [Compound 119] |
| > 10000 | > 100 | NC(=O)c1ccc(CN(Cc2ccc(Cl)cc2Cl)C(=O)c2cccc(F)c2)cn1 [Compound 143, 5-({N-[(2,4-dichlorophenyl)methyl]-1-(3-fluorophenyl)formamido}methyl)pyridine-2-carboxamide] |
| 1000 to 10000 | 10 to 100 | COC(=O)C[C@@H](c1ccc(Cl)cc1Cl)N(Cc1cccnc1)C(=O)c1cc(F)cc(F)c1 [Compound 215] |
| 100 to 1000 | 10 to 100 | O=C(c1cc(F)cc(F)c1)N(Cc1ccc(CCO)nc1)Cc1ccc(Cl)cc1Cl [Compound 218] |
| 1000 to 10000 | 10 to 100 | Cc1cc(-c2ccc(CN(Cc3ccccc3Cl)C(=O)c3cc(F)cc(F)c3)cn2)[nH]n1 [Compound 219] |
| < 100 | 10 to 100 | NCCC[C@@H](c1cccc(Cl)c1Cl)N(Cc1cccnc1)C(=O)c1cc(F)cc(F)c1 [Compound 248] |
| 100 to 1000 | 10 to 100 | O=C(O)c1ccc(CN(Cc2ccccc2Cl)C(=O)c2cccc(F)c2)cn1 [Compound 151] |
| < 100 | < 1 | CC[C@@H](c1cccc(Cl)c1Cl)N(Cc1cnc(C(=O)O)c(N)c1)C(=O)c1cc(F)cc(F)c1 [Compound 236] |
| > 10000 | > 100 | COC(=O)c1ccc(CN(Cc2ccc(Cl)cc2Cl)C(=O)c2cccc(F)c2)cn1 [Compound 141, methyl 5-({N-[(2,4-dichlorophenyl)methyl]-1-(3-fluorophenyl)formamido}methyl)pyridine-2-carboxylate] |
| < 100 | 10 to 100 | O=C(O)c1cc(CO)c(CN(Cc2cccc(Cl)c2Cl)C(=O)c2cc(F)cc(F)c2)cn1 [Compound 206] |
| 100 to 1000 | 10 to 100 | O=C(c1cccc(F)c1)N(Cc1cccnc1)Cc1cccc(F)c1Cl [Compound 137] |
| < 100 | 10 to 100 | CC[C@@H](c1cccc(OC2COC2)c1Cl)N(Cc1ccc(C(=O)O)nc1)C(=O)c1cc(F)cc(F)c1 [Compound 232] |
